Where two headings read alike, the source gives them in different places.
How the values were obtained:
[1] = system: T1, NhAAT; assay: coupled malate dehydrogenase assay, NADH decrease at […] nm, double reciprocal plot; type: biochemical, Neoporphyra haitanensis; settings: reverse reaction; co-substrate 20 mM α-ketoglutarate; 50 µM PLP; 0.1 M sodium phosphate; optimal conditions pH 7.5, 45 °C; L-aspartic acid 0-100 mM
T1 construct: gene AAT; E. coli BL21 pLysS; homodimer predicted; catalytic Lys267; primers imply N-terminus MTTTAMAP and C-terminus ETVVKQE

[2] = system: T2, NhAAT; settings: forward reaction; co-substrate 20 mM oxaloacetic acid; 50 µM PLP; 0.1 M sodium phosphate; optimal conditions pH 7.5, 45 °C; L-glutamic acid 0-100 mM
T2 construct: gene AAT

Km [1] [mM] | Km [2] [mM] | Compound
6.16 |  | N[C@@H](CC(=O)O)C(=O)O [L-aspartic acid]
 | 5.67 | N[C@@H](CCC(=O)O)C(=O)O [L-glutamic acid]

From publication PMC10029208, “Isolation and functional verification of an aspartate aminotransferase gene from Neoporphyra haitanensis” (BMC Plant Biology, 2023)
